The record followed here is patent US8569288B2, “Thienotriazolodiazepine derivatives active on apo A” (CircoMed LLC, priority 2008, dated 2013).

For the test, the target named is central benzodiazepine receptor (BZD). As to the kind of experiment: Binding to central benzodiazepine receptor, [3H]flunitrazepam displacement on rat cerebral cortex membranes. Conditions: 0.4 nM [3H]flunitrazepam, 4° C., 60 min; read-out: IC50 of reference ligand in BZD binding assay. On the procedure: Affinity of the compounds of the invention to the central benzodiazepine receptor (BZD) was measured by determining the binding of 0.4 nM [^3H]flunitrazepam to rat cerebral cortex membranes, and its displacement by compounds of the invention as compared to the reference ligand diazepam, at 4° C. for 60 min, as described by R. C. Speth et al., Life Sci. 24:351-358 (1979).
The specific binding to the receptors is defined as the difference between the total binding and the non-specific binding determined in the presence of an excess of unlabeled ligand (diazepam). The results are expressed as a percent of control specific binding ((measured specific binding/control specific binding)×100) obtained in the presence of compound 5, 6 and 7.
In each experiment, the respective reference compound was tested concurrently with compound 5, 6 and 7 in order to assess the assay suitability. It was tested at several concentrations (for IC50 value determination).

The term IC50 denotes the concentration at which inhibition is half-maximal. For `CN1C(=O)CN=C(c2ccccc2)c2cc(Cl)ccc21` [diazepam, reference compound], the IC50 was found to be 16 nM.
